Reference: ChEMBL document CHEMBL1201862, “PubChem BioAssay data set” (2004)
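Method: 48-hour compound exposure of cells in 96-well plates, five concentrations, linear interpolation of endpoints. GI50 is the concentration that inhibits growth by half.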 Activity calls are given as the source filed them. No stated cut-off is given here; in the data, active = GI50 up to about 1.1 µM and inactive = higher.

What was measured:
Assay in all cases: NCI-60 cell line screen, 48 h
MDA-MB-231 = test system: MDA-MB-231
RXF 393 = test system: RXF 393
SF-539 = test system: SF-539
KM12 = test system: KM12
OVCAR-3 = test system: OVCAR-3
HT-29 = test system: HT-29
NCI-H23 = test system: NCI-H23
NCI/ADR-RES = test system: NCI/ADR-RES
HOP-92 = test system: HOP-92
U-251 = test system: U-251
OVCAR-5 = test system: OVCAR-5
HCT-15 = test system: HCT-15
SF-295 = test system: SF-295
A549 = test system: A549
COLO 205 = test system: COLO 205
SK-MEL-5 = test system: SK-MEL-5
HCT-116 = test system: HCT-116
TK-10 = test system: TK-10
DU-145 = test system: DU-145
MDA-MB-435 = test system: MDA-MB-435
OVCAR-8 = test system: OVCAR-8
CAKI-1 = test system: CAKI-1
ACHN = test system: ACHN
SNB-75 = test system: SNB-75
SF-268 = test system: SF-268
PC-3 = test system: PC-3
A498 = test system: A498
UO-31 = test system: UO-31
OVCAR-4 = test system: OVCAR-4
SN12C = test system: SN12C
MDA-N = test system: MDA-N
NCI-H226 = test system: NCI-H226
SK-MEL-28 = test system: SK-MEL-28
SNB-19 = test system: SNB-19
EKVX = test system: EKVX
M14 = test system: M14
SW-620 = test system: SW-620
IGROV-1 = test system: IGROV-1
HCC 2998 = test system: HCC 2998
786-0 = test system: 786-0
SK-OV-3 = test system: SK-OV-3
UACC-62 = test system: UACC-62
HOP-62 = test system: HOP-62
MOLT-4 = test system: MOLT-4
RPMI-8226 = test system: RPMI-8226
UACC-257 = test system: UACC-257
Malme-3M = test system: Malme-3M
T47D = test system: T47D
SR = test system: SR
CCRF-CEM = test system: CCRF-CEM
K562 = test system: K562
MCF7 = test system: MCF7
HL-60 = test system: HL-60
LOX IMVI = test system: LOX IMVI
Hs-578T = test system: Hs-578T
NCI-H522 = test system: NCI-H522
NCI-H460 = test system: NCI-H460

Measured: GI50

COc1cc2c(cc1OC)C1C[C@]3(CCN1CC2)C(=O)N(c1ccccc1)C(=O)N3C(C)=O (stereo not given in full)
inactive: MDA-MB-231 > 200 µM | RXF 393 > 200 µM | SF-539 > 200 µM | KM12 > 200 µM | OVCAR-3 > 200 µM | HT-29 > 200 µM | NCI-H23 > 200 µM | NCI/ADR-RES > 200 µM | HOP-92 > 200 µM | U-251 > 200 µM | OVCAR-5 > 200 µM | SF-295 > 200 µM | A549 > 200 µM | COLO 205 > 200 µM | SK-MEL-5 > 200 µM | HCT-116 > 200 µM | TK-10 > 200 µM | DU-145 > 200 µM | MDA-MB-435 > 200 µM | OVCAR-8 > 200 µM | CAKI-1 > 200 µM | ACHN > 200 µM | SNB-75 > 200 µM | SF-268 > 200 µM | PC-3 > 200 µM | A498 > 200 µM | UO-31 > 200 µM | OVCAR-4 > 200 µM | SN12C > 200 µM | MDA-N > 200 µM | NCI-H226 > 200 µM | SK-MEL-28 > 200 µM | SNB-19 > 200 µM | EKVX > 200 µM | M14 > 200 µM | SW-620 > 200 µM | IGROV-1 > 200 µM
> 200 µM: HCT-15

C/C(=C\CCC1=CC(=O)OC1)CCC1C2C(=O)CC(C)[C@@]3(C)CC[C@]1(C)[C@@]23C (stereo not given in full)
inactive: MDA-MB-231 > 10 µM | RXF 393 > 10 µM | HCC 2998 > 10 µM | KM12 > 10 µM | 786-0 > 10 µM | HT-29 > 10 µM | NCI-H23 > 10 µM | SK-OV-3 > 10 µM | UACC-62 > 10 µM | SF-295 > 10 µM | HOP-62 > 10 µM | A549 > 10 µM | COLO 205 > 10 µM | SK-MEL-5 > 10 µM | TK-10 > 10 µM | DU-145 > 10 µM | OVCAR-8 > 10 µM | MOLT-4 > 10 µM | RPMI-8226 > 10 µM | UACC-257 > 10 µM | CAKI-1 > 10 µM | Malme-3M > 10 µM | SNB-75 > 10 µM | SF-268 > 10 µM | PC-3 > 10 µM | T47D > 10 µM | SR 6.62 µM | SN12C > 10 µM | MDA-N > 10 µM | SK-MEL-28 > 10 µM | CCRF-CEM > 10 µM | K562 9.44 µM | MCF7 > 10 µM | EKVX > 10 µM | M14 > 10 µM | SW-620 > 10 µM | HL-60 5.85 µM | IGROV-1 > 10 µM | LOX IMVI > 10 µM
> 10 µM: HCT-15

O=c1c2ccccc2nc2n1CCc1c-2[nH]c2ccccc12 [RUTAECARPINE]
inactive: RXF 393 18.8 µM | KM12 > 10 µM | NCI-H23 17.8 µM | SK-OV-3 19.4 µM | NCI/ADR-RES 19.5 µM | HOP-92 15.6 µM | U-251 15.3 µM | OVCAR-5 17.4 µM | SF-295 14.1 µM | COLO 205 21.8 µM | SK-MEL-5 14.7 µM | HCT-116 17.5 µM | TK-10 29.6 µM | DU-145 17.4 µM | OVCAR-8 26.2 µM | MOLT-4 19.9 µM | RPMI-8226 15 µM | CAKI-1 9.2 µM | Malme-3M 28.8 µM | SNB-75 18.9 µM | SF-268 26.8 µM | PC-3 22.2 µM | T47D 15.7 µM | SR 24.4 µM | UO-31 14.9 µM | MDA-N 15.2 µM | SK-MEL-28 25.2 µM | K562 25.2 µM | SNB-19 15.8 µM | EKVX 20.7 µM | M14 17.1 µM | SW-620 18.6 µM | HL-60 24.2 µM | IGROV-1 19.8 µM
> 10 µM: HCT-15

O=C(O)CCCc1ccccc1 [SODIUM PHENYLBUTYRATE]
137 µM: HCT-15
inactive: RXF 393 193 µM | HCC 2998 144 µM | SF-539 177 µM | KM12 126 µM | HOP-92 80.2 µM | UACC-62 172 µM | SK-MEL-5 162 µM | MOLT-4 117 µM | A498 144 µM | Hs-578T 182 µM | UO-31 189 µM | SN12C 102 µM | NCI-H522 110 µM | CCRF-CEM 63.5 µM | K562 102 µM | NCI-H460 118 µM
